According to patent US20070128217A1 (priority 2003, published 2007):

What was measured:
[1] = tested on: antibodies in sera from SARS patients (sera 1a, 1b, 2, 6, 37, 62, London, SARS-yellow, SARS-green); assay type: binding, human; design: Binding of serum 6 to linear peptides of protein X1 of SARS-CoV Urbani / Binding of serum 37 to linear peptides of protein X1 of SARS-CoV Urbani / Binding of serum 6 to looped/cyclic peptide (PEPSCAN-ELISA) / Binding of serum 37 to looped/cyclic peptide (PEPSCAN-ELISA) / Binding of serum 37 to looped/cyclic peptides of protein X1 of SARS-CoV Urbani / Binding of serum 6 to linear peptides of protein X2 / Binding of serum 37 to linear peptides of protein X2 / Binding of serum 37 to looped/cyclic peptides of protein X2 of SARS-CoV Urbani / Binding of serum 6 to linear peptides of protein M of SARS-CoV Urbani / Binding of serum 37 to linear peptides of protein M of SARS-CoV Urbani / Binding of serum 6 to looped/cyclic peptides of protein M of SARS-CoV Urbani / Binding of serum 37 to looped/cyclic peptides of protein M of SARS-CoV Urbani / Binding of serum 6 to linear peptides of protein X3 of SARS-CoV Urbani / Binding of serum 37 to linear peptides of protein X3 of SARS-CoV Urbani / Binding of serum 37 to looped/cyclic peptides of protein X3 of SARS-CoV Urbani / Binding of serum 6 to linear peptides of protein X4 of SARS-CoV Urbani / Binding of serum 37 to linear peptides of protein X4 of SARS-CoV Urbani / Binding of serum 37 to looped/cyclic peptides of protein X4 of SARS-CoV Urbani / Binding of serum 6 to linear peptides of protein X5 of SARS-CoV Urbani / Binding of serum 37 to linear peptides of protein X5 of SARS-CoV Urbani / Binding of serum 37 to looped/cyclic peptides of protein X5 of SARS-CoV Urbani / Binding of serum 6 to linear peptides of protein N of SARS-CoV Urbani / Binding of serum 37 to linear peptides of protein N of SARS-CoV Urbani / Binding of serum 6 to linear peptide (PEPSCAN-ELISA) / Binding of serum 1a to looped/cyclic peptides of protein N of SARS-CoV Urbani / Binding of serum 1b to looped/cyclic peptides of protein N of SARS-CoV Urbani / Binding of serum 2 to looped/cyclic peptides of protein N of SARS-CoV Urbani / Binding of serum 6 to looped/cyclic peptides of protein N of SARS-CoV Urbani / Binding of serum 37 to looped/cyclic peptides of protein N of SARS-CoV Urbani / Binding of serum 62 to looped/cyclic peptides of protein N of SARS-CoV Urbani / Binding of serum London to looped/cyclic peptides of protein N of SARS-CoV Urbani / Binding of serum SARS-green to looped/cyclic peptides of protein N of SARS-CoV Urbani: unit not given here
[2] = tested on: control sera (pooled serum of ten healthy LUMC hospital workers; commercial negative donor pooled serum from the Dutch bloodbank); assay type: binding, human; design: Binding of Control serum LUMC to linear peptides / Binding of Control serum Blood-bank to linear peptides / Binding of Control serum LUMC to looped peptides / Binding of Control Serum Blood-Bank to Looped peptides / Binding of Control serum LUMC to linear peptides of the protein M of SARS-CoV Urbani / Binding of Control serum Blood-bank to linear peptides of the protein M of SARS-CoV Urbani / Binding of Control serum LUMC to looped peptides of the protein M of SARS-CoV Urbani / Binding of Control Serum Blood-Bank to Looped peptides of the protein M of SARS-CoV Urbani: unit not given here
[3] = tested on: rabbit serum obtained by immunizing a rabbit with the SARS-CoV strain Frankfurt 1; assay type: binding; design: Binding of a rabbit serum to linear peptides / Binding of a rabbit serum to looped peptides / Rabbit serum linear peptides / Rabbit serum looped peptides / Binding of a rabbit serum to linear peptides of protein N of SARS-CoV Urbani (Rabbit serum linear peptides) / Binding of a rabbit serum to looped/cyclic peptides of protein N of SARS-CoV Urbani (Rabbit serum looped peptides): unit not given here

MWSFNPETNILLNVP
0.6: Binding of serum SARS-yellow to looped/cyclic peptides of protein M of SARS-CoV Urbani [1]
0.7: Binding of serum 1b to looped/cyclic peptides of protein M of SARS-CoV Urbani [1]
0.3: Binding of serum London to linear peptides of protein M of SARS-CoV Urbani [1] | Binding of serum SARS-green to linear peptides of protein M of SARS-CoV Urbani [1] | Binding of serum SARS-green to looped/cyclic peptides of protein M of SARS-CoV Urbani [1]
0.5: Binding of serum 1b to linear peptides of protein M of SARS-CoV Urbani [1] | Binding of serum 6 to looped/cyclic peptides of protein M of SARS-CoV Urbani [1] | Binding of Control serum LUMC to linear peptides of the protein M of SARS-CoV Urbani [2]
0.1: Binding of serum SARS-yellow to linear peptides of protein M of SARS-CoV Urbani [1]
0.9: Binding of serum 2 to looped/cyclic peptides of protein M of SARS-CoV Urbani [1] | Binding of serum 37 to linear peptides of protein M of SARS-CoV Urbani [1] | Binding of serum 62 to linear peptides of protein M of SARS-CoV Urbani [1] | Binding of Control serum Blood-bank to linear peptides of the protein M of SARS-CoV Urbani [2]
0.4: Binding of serum 6 to linear peptides of protein M of SARS-CoV Urbani [1] | Rabbit serum linear peptides [3]
0.8: Binding of serum 1a to linear peptides of protein M of SARS-CoV Urbani [1] | Binding of serum 1a to looped/cyclic peptides of protein M of SARS-CoV Urbani [1] | Binding of serum 2 to linear peptides of protein M of SARS-CoV Urbani [1] | Binding of serum 37 to looped/cyclic peptides of protein M of SARS-CoV Urbani [1] | Binding of serum 62 to looped/cyclic peptides of protein M of SARS-CoV Urbani [1] | Binding of Control Serum Blood-Bank to Looped peptides of the protein M of SARS-CoV Urbani [2] | Binding of Control serum LUMC to looped peptides of the protein M of SARS-CoV Urbani [2]
0.2: Binding of serum London to looped/cyclic peptides of protein M of SARS-CoV Urbani [1] | Rabbit serum looped peptides [3]

ELYSPLFLIVAALVF
0.4: Binding of serum 1b to linear peptides of protein X4 of SARS-CoV Urbani [1] | Binding of serum 1b to looped/cyclic peptides of protein X4 of SARS-CoV Urbani [1] | Binding of serum 2 to linear peptides of protein X4 of SARS-CoV Urbani [1] | Binding of serum 6 to linear peptides of protein X4 of SARS-CoV Urbani [1] | Binding of serum 6 to looped/cyclic peptides of protein X4 of SARS-CoV Urbani [1] | Rabbit serum linear peptides [3]
0.2: Binding of serum London to looped/cyclic peptides of protein X4 of SARS-CoV Urbani [1] | Binding of serum SARS-yellow to linear peptides of protein X4 of SARS-CoV Urbani [1]
0.7: Binding of serum 1a to linear peptides of protein X4 of SARS-CoV Urbani [1] | Binding of Control Serum Blood-Bank to Looped peptides [2] | Binding of Control serum LUMC to looped peptides [2]
0.3: Binding of Control serum LUMC to linear peptides [2]
0.6: Binding of serum 1a to looped/cyclic peptides of protein X4 of SARS-CoV Urbani [1] | Binding of serum 2 to looped/cyclic peptides of protein X4 of SARS-CoV Urbani [1] | Binding of serum 37 to linear peptides of protein X4 of SARS-CoV Urbani [1] | Binding of serum 37 to looped/cyclic peptides of protein X4 of SARS-CoV Urbani [1] | Binding of serum 62 to linear peptides of protein X4 of SARS-CoV Urbani [1] | Binding of serum 62 to looped/cyclic peptides of protein X4 of SARS-CoV Urbani [1] | Binding of serum SARS-yellow to looped/cyclic peptides of protein X4 of SARS-CoV Urbani [1]
0.5: Binding of serum London to linear peptides of protein X4 of SARS-CoV Urbani [1] | Binding of serum SARS-green to linear peptides of protein X4 of SARS-CoV Urbani [1] | Binding of serum SARS-green to looped/cyclic peptides of protein X4 of SARS-CoV Urbani [1] | Binding of Control serum Blood-bank to linear peptides [2] | Rabbit serum looped peptides [3]

HKLLQTLVLKMLHSS
0.6: Binding of serum 1a to looped/cyclic peptides of protein X2 of SARS-CoV Urbani [1] | Binding of serum 1b to looped/cyclic peptides of protein X2 of SARS-CoV Urbani [1] | Binding of Control serum Blood-bank to linear peptides [2]
0.2: Binding of serum 6 to linear peptides of protein X2 [1] | Binding of a rabbit serum to linear peptides [3]
0.5: Binding of serum 1a to linear peptides of protein X2 [1] | Binding of serum 1b to linear peptides of protein X2 [1] | Binding of serum 37 to linear peptides of protein X2 [1] | Binding of serum 37 to looped/cyclic peptides of protein X2 of SARS-CoV Urbani [1] | Binding of serum 62 to linear peptides of protein X2 [1] | Binding of serum SARS-yellow to linear peptides of protein X2 [1] | Binding of serum SARS-yellow to looped/cyclic peptides of protein X2 of SARS-CoV Urbani [1]
0.7: Binding of serum 62 to looped/cyclic peptides of protein X2 of SARS-CoV Urbani [1] | Binding of Control Serum Blood-Bank to Looped peptides [2] | Binding of Control serum LUMC to looped peptides [2]
0.4: Binding of serum 2 to linear peptides of protein X2 [1] | Binding of serum 2 to looped/cyclic peptides of protein X2 of SARS-CoV Urbani [1] | Binding of serum 6 to looped/cyclic peptides of protein X2 of SARS-CoV Urbani [1] | Binding of serum London to linear peptides of protein X2 [1] | Binding of serum SARS-green to linear peptides of protein X2 [1] | Binding of Control serum LUMC to linear peptides [2] | Binding of a rabbit serum to looped peptides [3]
0.3: Binding of serum London to looped/cyclic peptides of protein X2 of SARS-CoV Urbani [1] | Binding of serum SARS-green to looped/cyclic peptides of protein X2 of SARS-CoV Urbani [1]

CTSTHFAFACADGTR
0.5: Binding of serum 2 to linear peptides of protein X4 of SARS-CoV Urbani [1]
0.8: Binding of serum 62 to linear peptides of protein X4 of SARS-CoV Urbani [1] | Binding of Control Serum Blood-Bank to Looped peptides [2] | Binding of Control serum LUMC to linear peptides [2]
0.4: Binding of serum 1b to looped/cyclic peptides of protein X4 of SARS-CoV Urbani [1] | Binding of serum SARS-green to looped/cyclic peptides of protein X4 of SARS-CoV Urbani [1] | Binding of serum SARS-yellow to linear peptides of protein X4 of SARS-CoV Urbani [1] | Rabbit serum linear peptides [3]
0.3: Binding of serum London to looped/cyclic peptides of protein X4 of SARS-CoV Urbani [1]
0.7: Binding of serum 1a to linear peptides of protein X4 of SARS-CoV Urbani [1] | Binding of serum 1a to looped/cyclic peptides of protein X4 of SARS-CoV Urbani [1] | Binding of serum 1b to linear peptides of protein X4 of SARS-CoV Urbani [1] | Binding of serum 37 to linear peptides of protein X4 of SARS-CoV Urbani [1] | Binding of serum 37 to looped/cyclic peptides of protein X4 of SARS-CoV Urbani [1] | Binding of serum 62 to looped/cyclic peptides of protein X4 of SARS-CoV Urbani [1] | Binding of serum London to linear peptides of protein X4 of SARS-CoV Urbani [1] | Binding of Control serum Blood-bank to linear peptides [2] | Binding of Control serum LUMC to looped peptides [2]
1.0: Binding of serum SARS-yellow to looped/cyclic peptides of protein X4 of SARS-CoV Urbani [1]
0.6: Binding of serum 2 to looped/cyclic peptides of protein X4 of SARS-CoV Urbani [1] | Binding of serum 6 to linear peptides of protein X4 of SARS-CoV Urbani [1] | Binding of serum 6 to looped/cyclic peptides of protein X4 of SARS-CoV Urbani [1] | Binding of serum SARS-green to linear peptides of protein X4 of SARS-CoV Urbani [1] | Rabbit serum looped peptides [3]

NILLNVPLRGTIVTR
0.5: Binding of serum 1b to linear peptides of protein M of SARS-CoV Urbani [1] | Rabbit serum linear peptides [3]
0.1: Binding of serum SARS-yellow to linear peptides of protein M of SARS-CoV Urbani [1]
0.6: Binding of serum 37 to linear peptides of protein M of SARS-CoV Urbani [1]
0.4: Binding of serum 6 to linear peptides of protein M of SARS-CoV Urbani [1] | Binding of serum London to linear peptides of protein M of SARS-CoV Urbani [1] | Rabbit serum looped peptides [3]
0.7: Binding of serum 1a to linear peptides of protein M of SARS-CoV Urbani [1] | Binding of serum 62 to linear peptides of protein M of SARS-CoV Urbani [1] | Binding of Control serum LUMC to looped peptides of the protein M of SARS-CoV Urbani [2]
0.8: Binding of serum 2 to linear peptides of protein M of SARS-CoV Urbani [1] | Binding of Control Serum Blood-Bank to Looped peptides of the protein M of SARS-CoV Urbani [2] | Binding of Control serum Blood-bank to linear peptides of the protein M of SARS-CoV Urbani [2]
0.3: Binding of serum SARS-green to linear peptides of protein M of SARS-CoV Urbani [1] | Binding of Control serum LUMC to linear peptides of the protein M of SARS-CoV Urbani [2]
recognized in looped/cyclic form: Recognition of the peptide by sera of SARS-CoV infected individuals, and form (linear, looped/cyclic) in which it is recognized [1]
